Measured values taken from ChEMBL document CHEMBL1201862, “PubChem BioAssay data set” (2004).
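Results reflect a 48-hour exposure of cells in 96-well plates to compound at five concentrations. GI50 = concentration required for 50% inhibition of growth.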 Active and inactive are the calls of the source. No stated cut-off is given here; in the data, active = GI50 up to about 1.1 µM and inactive = higher.

How the values were obtained:
Experiment in all cases: inhibition of tumour cell growth, NCI panel, 48 h
UACC-62 = tested on: UACC-62
CCRF-CEM = tested on: CCRF-CEM
SR = tested on: SR
HOP-92 = tested on: HOP-92
LOX IMVI = tested on: LOX IMVI
SK-MEL-28 = tested on: SK-MEL-28
786-0 = tested on: 786-0
OVCAR-8 = tested on: OVCAR-8
Hs-578T = tested on: Hs-578T
HCT-15 = tested on: HCT-15
U-251 = tested on: U-251
OVCAR-3 = tested on: OVCAR-3
MOLT-4 = tested on: MOLT-4
SF-539 = tested on: SF-539
NCI-H522 = tested on: NCI-H522
SK-MEL-2 = tested on: SK-MEL-2
TK-10 = tested on: TK-10
RPMI-8226 = tested on: RPMI-8226
BT-549 = tested on: BT-549
PC-3 = tested on: PC-3
MCF7 = tested on: MCF7
HOP-62 = tested on: HOP-62
MDA-MB-231 = tested on: MDA-MB-231
HT-29 = tested on: HT-29
SK-MEL-5 = tested on: SK-MEL-5
NCI/ADR-RES = tested on: NCI/ADR-RES
IGROV-1 = tested on: IGROV-1
NCI-H23 = tested on: NCI-H23
NCI-H226 = tested on: NCI-H226
DU-145 = tested on: DU-145
OVCAR-4 = tested on: OVCAR-4
MDA-N = tested on: MDA-N
T47D = tested on: T47D
SN12C = tested on: SN12C
HCC 2998 = tested on: HCC 2998
M14 = tested on: M14
EKVX = tested on: EKVX
SF-268 = tested on: SF-268
A549 = tested on: A549
UO-31 = tested on: UO-31
SNB-19 = tested on: SNB-19
KM12 = tested on: KM12
K562 = tested on: K562
HCT-116 = tested on: HCT-116
CAKI-1 = tested on: CAKI-1
NCI-H460 = tested on: NCI-H460
Malme-3M = tested on: Malme-3M
A498 = tested on: A498
SK-OV-3 = tested on: SK-OV-3
SF-295 = tested on: SF-295
ACHN = tested on: ACHN
UACC-257 = tested on: UACC-257
MDA-MB-435 = tested on: MDA-MB-435
COLO 205 = tested on: COLO 205
OVCAR-5 = tested on: OVCAR-5
HL-60 = tested on: HL-60
SNB-75 = tested on: SNB-75
SW-620 = tested on: SW-620
RXF 393 = tested on: RXF 393

C=CCOC(=O)c1c(C)[n+]([O-])c2cc(Cl)c(Cl)cc2[n+]1[O-]
GI50 (UACC-62): 20.2 µM (inactive)
GI50 (CCRF-CEM): 17.3 µM (inactive)
GI50 (SR): 4.54 µM (inactive)
GI50 (HOP-92): 13.7 µM (inactive)
GI50 (LOX IMVI): 15.5 µM (inactive)
GI50 (SK-MEL-28): 16.1 µM (inactive)
GI50 (786-0): 29.4 µM (inactive)
GI50 (OVCAR-8): 19.4 µM (inactive)
GI50 (Hs-578T): 27.5 µM (inactive)
GI50 (HCT-15): 13.5 µM
GI50 (U-251): 31.8 µM (inactive)
GI50 (OVCAR-3): 20.1 µM (inactive)
GI50 (MOLT-4): 15.1 µM (inactive)
GI50 (SF-539): 21.8 µM (inactive)
GI50 (NCI-H522): 12.4 µM (inactive)
GI50 (SK-MEL-2): 13.6 µM (inactive)
GI50 (TK-10): 29.4 µM (inactive)
GI50 (RPMI-8226): 12.4 µM (inactive)
GI50 (BT-549): 34.4 µM (inactive)
GI50 (PC-3): 31.6 µM (inactive)
GI50 (MCF7): 20.5 µM (inactive)
GI50 (HOP-62): 25.5 µM (inactive)
GI50 (MDA-MB-231): 24 µM (inactive)
GI50 (HT-29): 18.2 µM (inactive)
GI50 (SK-MEL-5): 19 µM (inactive)
GI50 (NCI/ADR-RES): 20.6 µM (inactive)
GI50 (IGROV-1): 4.62 µM (inactive)
GI50 (NCI-H23): 14.4 µM (inactive)
GI50 (NCI-H226): 19.1 µM (inactive)
GI50 (DU-145): 29.6 µM (inactive)
GI50 (OVCAR-4): 7.23 µM (inactive)
GI50 (MDA-N): 20.6 µM (inactive)
GI50 (T47D): 18.9 µM (inactive)
GI50 (SN12C): 24.3 µM (inactive)
GI50 (HCC 2998): 12.9 µM (inactive)
GI50 (M14): 18.2 µM (inactive)
GI50 (EKVX): 18.8 µM (inactive)
GI50 (SF-268): 14.7 µM (inactive)
GI50 (A549): 23 µM (inactive)
GI50 (UO-31): 23.3 µM (inactive)
GI50 (SNB-19): 74.8 µM (inactive)
GI50 (KM12): 29.7 µM (inactive)
GI50 (K562): 27.9 µM (inactive)
GI50 (HCT-116): 17.8 µM (inactive)
GI50 (CAKI-1): 19.2 µM (inactive)
GI50 (NCI-H460): 18.7 µM (inactive)
GI50 (Malme-3M): 28.5 µM (inactive)
GI50 (A498): 27.5 µM (inactive)
GI50 (SK-OV-3): 28.8 µM (inactive)
GI50 (SF-295): 32.6 µM (inactive)
GI50 (ACHN): 23.6 µM (inactive)
GI50 (UACC-257): 18.7 µM (inactive)
GI50 (MDA-MB-435): 19.8 µM (inactive)
GI50 (COLO 205): 17.9 µM (inactive)
GI50 (OVCAR-5): 30.4 µM (inactive)
GI50 (HL-60): 16.6 µM (inactive)

COc1ccc(Cc2cc(Cc3ccc(OC)cc3)cc(Cc3ccc(OC)cc3)c2)cc1
GI50 (UACC-62): > 100 µM (inactive)
GI50 (SR): 89.5 µM (inactive)
GI50 (HOP-92): > 100 µM (inactive)
GI50 (LOX IMVI): > 100 µM (inactive)
GI50 (SK-MEL-28): > 100 µM (inactive)
GI50 (786-0): > 100 µM (inactive)
GI50 (OVCAR-8): > 100 µM (inactive)
GI50 (Hs-578T): > 100 µM (inactive)
GI50 (HCT-15): > 100 µM
GI50 (U-251): > 100 µM (inactive)
GI50 (OVCAR-3): > 100 µM (inactive)
GI50 (MOLT-4): > 100 µM (inactive)
GI50 (SF-539): > 100 µM (inactive)
GI50 (NCI-H522): > 100 µM (inactive)
GI50 (SK-MEL-2): > 100 µM (inactive)
GI50 (TK-10): > 100 µM (inactive)
GI50 (RPMI-8226): > 100 µM (inactive)
GI50 (BT-549): > 100 µM (inactive)
GI50 (PC-3): > 100 µM (inactive)
GI50 (MCF7): > 100 µM (inactive)
GI50 (HOP-62): > 100 µM (inactive)
GI50 (MDA-MB-231): > 100 µM (inactive)
GI50 (HT-29): > 100 µM (inactive)
GI50 (NCI/ADR-RES): > 100 µM (inactive)
GI50 (IGROV-1): > 100 µM (inactive)
GI50 (NCI-H226): > 100 µM (inactive)
GI50 (DU-145): > 100 µM (inactive)
GI50 (OVCAR-4): > 100 µM (inactive)
GI50 (SNB-75): > 100 µM (inactive)
GI50 (MDA-N): 6.58 µM (inactive)
GI50 (T47D): > 100 µM (inactive)
GI50 (SN12C): > 100 µM (inactive)
GI50 (HCC 2998): > 100 µM (inactive)
GI50 (M14): > 100 µM (inactive)
GI50 (EKVX): > 100 µM (inactive)
GI50 (SF-268): > 100 µM (inactive)
GI50 (A549): > 100 µM (inactive)
GI50 (UO-31): > 100 µM (inactive)
GI50 (SNB-19): > 100 µM (inactive)
GI50 (KM12): > 100 µM (inactive)
GI50 (K562): > 100 µM (inactive)
GI50 (HCT-116): > 100 µM (inactive)
GI50 (NCI-H460): > 100 µM (inactive)
GI50 (Malme-3M): 56.8 µM (inactive)
GI50 (A498): > 100 µM (inactive)
GI50 (SK-OV-3): > 100 µM (inactive)
GI50 (SF-295): > 100 µM (inactive)
GI50 (ACHN): > 100 µM (inactive)
GI50 (UACC-257): > 100 µM (inactive)
GI50 (SW-620): > 100 µM (inactive)
GI50 (MDA-MB-435): 13.6 µM (inactive)
GI50 (OVCAR-5): > 100 µM (inactive)
GI50 (HL-60): > 100 µM (inactive)

O=C1CC2[C@@H](N3CCCC3)CCC(N1Cc1ccccc1)C2(O)O (stereo not given in full)
GI50 (UACC-62): > 100 µM (inactive)
GI50 (CCRF-CEM): > 100 µM (inactive)
GI50 (SR): > 100 µM (inactive)
GI50 (HOP-92): > 100 µM (inactive)
GI50 (LOX IMVI): > 100 µM (inactive)
GI50 (SK-MEL-28): > 100 µM (inactive)
GI50 (786-0): > 100 µM (inactive)
GI50 (OVCAR-8): > 100 µM (inactive)
GI50 (Hs-578T): > 100 µM (inactive)
GI50 (HCT-15): > 100 µM
GI50 (U-251): > 100 µM (inactive)
GI50 (OVCAR-3): > 100 µM (inactive)
GI50 (MOLT-4): > 100 µM (inactive)
GI50 (SF-539): > 100 µM (inactive)
GI50 (NCI-H522): > 100 µM (inactive)
GI50 (TK-10): > 100 µM (inactive)
GI50 (BT-549): > 100 µM (inactive)
GI50 (PC-3): > 100 µM (inactive)
GI50 (MCF7): > 100 µM (inactive)
GI50 (HOP-62): > 100 µM (inactive)
GI50 (MDA-MB-231): > 100 µM (inactive)
GI50 (RXF 393): > 100 µM (inactive)
GI50 (HT-29): > 100 µM (inactive)
GI50 (SK-MEL-5): > 100 µM (inactive)
GI50 (NCI/ADR-RES): > 100 µM (inactive)
GI50 (IGROV-1): > 100 µM (inactive)
GI50 (NCI-H23): > 100 µM (inactive)
GI50 (NCI-H226): > 100 µM (inactive)
GI50 (DU-145): > 100 µM (inactive)
GI50 (OVCAR-4): > 10 µM (inactive)
GI50 (MDA-N): > 100 µM (inactive)
GI50 (T47D): > 100 µM (inactive)
GI50 (SN12C): > 100 µM (inactive)
GI50 (HCC 2998): > 100 µM (inactive)
GI50 (M14): > 100 µM (inactive)
GI50 (EKVX): > 100 µM (inactive)
GI50 (SF-268): > 100 µM (inactive)
GI50 (A549): > 100 µM (inactive)
GI50 (UO-31): > 100 µM (inactive)
GI50 (SNB-19): > 100 µM (inactive)
GI50 (KM12): > 100 µM (inactive)
GI50 (K562): > 100 µM (inactive)
GI50 (HCT-116): > 100 µM (inactive)
GI50 (CAKI-1): > 100 µM (inactive)
GI50 (NCI-H460): > 100 µM (inactive)
GI50 (Malme-3M): > 100 µM (inactive)
GI50 (A498): > 100 µM (inactive)
GI50 (SK-OV-3): > 100 µM (inactive)
GI50 (SF-295): > 100 µM (inactive)
GI50 (ACHN): > 100 µM (inactive)
GI50 (UACC-257): > 100 µM (inactive)
GI50 (SW-620): > 100 µM (inactive)
GI50 (MDA-MB-435): > 100 µM (inactive)
GI50 (COLO 205): > 100 µM (inactive)
GI50 (OVCAR-5): > 100 µM (inactive)
GI50 (HL-60): > 100 µM (inactive)
